Data on eight compounds can be found in US12673120B2, “Fluorescently-traceable amino acid derivative and preparation methods and use thereof” (priority 2020, dated 2026).

Series [1] concerns S180 (mouse ascites tumor cells). Kind of series: In vitro anti-tumor cell proliferation activity (MTT method), S180. The format is cell-based. The note with it: read-out: IC50 values of in vitro anti-cell proliferation activity.
Procedure: (§1) Tested cell lines S180 (mouse ascites tumor cells), LLC (mouse lung cancer cells), A549 (human non-small cell lung cancer cells), HCT116 (human colon cancer cells), U2Os (human osteosarcoma cells), and MCF-7 (human breast cancer cells) each were purchased from Nanjing KeyGen Biotech.
(§2) When preparing a test sample, the test compound was prepared into a sample solution with a concentration of 500 μM (with a final concentration 100 μM) by a PBS buffer containing 0.5% DMSO, which was used for preliminary screening of an anti-cell proliferation experiment in vitro.
(§3) Positive control group: doxorubicin, prepared to a required concentration with PBS buffer containing 0.5% DMSO; negative control group: a PBS buffer containing 0.5% DMSO; blank group: a PBS buffer containing 0.01% DMSO.
The subject of series [2] is LLC (mouse lung cancer cells). Briefly: In vitro anti-tumor cell proliferation activity (MTT method), LLC. In kind it is cell-based. The note with it: 48 h, read-out: IC50 values of in vitro anti-cell proliferation activity.
Procedure: as §1, §2, §3
The test system of series [3] is A549 (human non-small cell lung cancer cells). Briefly: In vitro anti-tumor cell proliferation activity (MTT method), A549. In kind it is cell-based. The note with it: read-out: IC50 values of in vitro anti-cell proliferation activity.
Procedure: as §1, §2, §3
For series [4], the system named is HCT116 (human colon cancer cells). Briefly: In vitro anti-tumor cell proliferation activity (MTT method), HCT116. The note with it: read-out: IC50 values of in vitro anti-cell proliferation activity. In kind it is cell-based.
Procedure: as §1, §2, §3
Series [5] concerns U2Os (human osteosarcoma cells). Briefly: In vitro anti-tumor cell proliferation activity (MTT method), U2Os. In kind it is cell-based. The note with it: 48 h, read-out: IC50 values of in vitro anti-cell proliferation activity.
Procedure: as §1, §2, §3
Series [6] has as its system MCF-7 (human breast cancer cells). Briefly: In vitro anti-tumor cell proliferation activity (MTT method), MCF-7. In kind it is cell-based. The note with it: read-out: IC50 values of in vitro anti-cell proliferation activity.
Procedure: as §1, §2, §3
A further series deals with mouse S180 sarcoma model. Briefly: Inhibition of tumor growth in vivo (mouse S180 sarcoma model). Also noted: species or system male ICR mice. The note with it: for Average tumor weight: Mean ± SD, n 10. How it is done: The mice used in the experiment were male ICR mice of SPF grade, weighing 20 g±2 g, purchased from Beijing Vital River Laboratory Animal Technology Co., Ltd., and raised in an animal barrier of the Experimental Animal Department of Capital Medical University.
The specific method included: drugs were administered to tumor-forming mice by group for 7 consecutive days, a length of the tumor was measured every other day to calculate a tumor volume. 24 h after the last administration, the mice were weighed, anesthetized with diethyl ether, and eyeballs were removed to collect blood; the obtained whole blood was centrifuged at 1,000 rpm for 10 min, and a serum was absorbed for later use. The mice were sacrificed by neck dislocation, and the tumor mass and various organs were stripped and weighed (it was ensured that the operation was done as soon as possible and the stripping was complete and clean). The tumor inhibition rate was calculated by formula b, the results were shown in Table 2 and FIG. 2; and by calculating a viscera-weight ratio of each organ, and it was analyzed whether the test compound had obvious physiological effects on the mouse organs.

The nature of series [7]: Nanomorphology characterization and stability (TEM, SEM, hydration particle size, Zeta potential). In kind it is physicochemical. An excerpt:
The nanomorphology of compounds ZD-B and ZD-E-1 were studied by TEM and SEM, and hydration particle size and Zeta potential of the two compounds in a solution were studied by a nanometer particle size analyzer. The results were shown in FIG. 1A-H. In FIG. 1A-H, FIG. 1A was a TEM image of the compound ZD-B; FIG. 1B was a TEM image of the compound ZD-E-1; FIG. 1C was a SEM image of the compound ZD-B; FIG. 1D was a SEM image of the compound ZD-E-1; FIG. 1E was a hydration particle size change curve of the compound ZD-B in solutions at different pH values within 72 h (0.5 h, 24 h, 48 h, and 72 h); FIG. 1F was a hydration particle size change curve of the compound ZD-E-1 in solutions at different pH solutions within 72 h; FIG. 1G was a Zeta potential change curve of the compound ZD-B in solutions at different pH values within 72 h; and FIG. 1H was a Zeta potential change curve of the compound ZD-E-1 in solutions at different pH values within 72 h.

A further series can be described thus: Water solubility. The format is physicochemical. The note with it: decides the injection route.
The mark [8] stands for this setting: Table 2, 10 μmol/kg, ip, 7 consecutive days.
The mark [9] stands for this setting: Table 2, 2 μmol/kg, ip, 7 consecutive days.

Molecules are shown by their SMILES. Counter-ions that a name gives are not always drawn. Like-named read-outs stand apart in the source and are kept apart here.

Turning to `CS(=O)(=O)NCCNc1ccc([N+](=O)[O-])c2nonc12` [ZD-C, NBD-N-(2-aminoethyl)methanesulfonamide], the IC50 in series [1] (S180, 48 h, Mean ± SD) is above 100 µM; in series [2] (LLC, Mean ± SD), above 100 µM; in series [3] (A549, 48 h, Mean ± SD) it was above 100 µM; in series [4] (HCT116, 48 h, Mean ± SD), above 100 µM; in [5] (U2Os, Mean ± SD), above 100 µM; in series [6] (MCF-7, 48 h, Mean ± SD), above 100 µM. Also, the “Average tumor weight compared with Vehicle group (one-way analysis of variance)” value in the series on mouse S180 sarcoma model (10 μmol/kg, ip) is recorded as “different from that of Vehicle group”. In the series on mouse S180 sarcoma model (setting [8]), this compound registered a Tumor Inhibition Rate of 29.46%. In addition, in the series on mouse S180 sarcoma model (setting [8]), the Average tumor weight is recorded as 1.260 ± 0.466 g.

Take `CC(C)C[C@H](Nc1ccc([N+](=O)[O-])c2nonc12)C(=O)N[C@H](C(=O)OCc1ccccc1)C(C)C` [ZD-B, NBD-LV-OBzl]: the IC50 was 74.4 ± 10.1 µM in series [1] (S180, 48 h, Mean ± SD); 96.5 ± 6.85 µM in series [2] (LLC, Mean ± SD); above 100 µM in series [3] (A549, 48 h, Mean ± SD); above 100 µM in series [4] (HCT116, 48 h, Mean ± SD); 86.4 ± 5.3 µM in series [5] (U2Os, Mean ± SD). In addition, the “Anti-tumor growth activity (in words)” value in the series with mouse S180 sarcoma model (10 μmol/kg, ip) is “most prominent activities”. In addition, in the series on mouse S180 sarcoma model (10 μmol/kg, ip), the “Average tumor weight compared with Vehicle group (one-way analysis of variance)” value is listed as “significantly different from that of Vehicle group”. Besides, the Tumor Inhibition Rate is given as 44.60% in the series with mouse S180 sarcoma model (setting [8]); 17.00% in the series with mouse S180 sarcoma model (Table 3, 2 μmol/kg, ip); 35.64% in the series with mouse S180 sarcoma model (Table 3, 5 μmol/kg, ip); 41.23% in the series on mouse S180 sarcoma model (Table 3, 10 μmol/kg, ip). In addition, the Average tumor weight was found to be 0.990 ± 0.180 g in the series with mouse S180 sarcoma model (setting [8]); 1.424 ± 0.434 g in the series on mouse S180 sarcoma model (Table 3, 2 μmol/kg, ip); 1.104 ± 0.218 g with mouse S180 sarcoma model (Table 3, 5 μmol/kg, ip); 1.008 ± 0.472 g in the series on mouse S180 sarcoma model (Table 3, 10 μmol/kg, ip). Further, the “Nanomorphology (shape)” value in series [7] (TEM and SEM) is “shape of a strip”. Further, the “Hydration particle size change” value in series [7] (pH=2.0, measured continuously for 72 h) is recorded as “great change in particle size”; in [7] (pH=5.5, measured continuously for 72 h), “great change in particle size”. Also, the Hydration particle size entry in series [7] (pH=7.0 versus other pH values, 72 h) was “smallest particle size at pH=7.0”. Moreover, in series [7] (solutions at different pH values, measured continuously for 72 h), the Zeta potential change entry is given as “neither ZD-B nor ZD-E-1 had an obvious change”. The Water solubility result in “Water solubility” is on record as “poor water solubility”.

Consider `NCCCC[C@H](Nc1ccc([N+](=O)[O-])c2nonc12)C(=O)NCc1ccccc1` [ZD-F, NBD-Lys(HCl)-NBzl], for which the IC50 in [1] (S180, 48 h, Mean ± SD) is above 100 µM; in series [2] (LLC, Mean ± SD) it was above 100 µM; in series [3] (A549, 48 h, Mean ± SD), above 100 µM; in series [4] (HCT116, 48 h, Mean ± SD) it was above 100 µM; in series [5] (U2Os, Mean ± SD), above 100 µM; in [6] (MCF-7, 48 h, Mean ± SD) it was above 100 µM.

For the compound `COc1cccc2c1C(=O)c1c(O)c3c(c(O)c1C2=O)C[C@@](O)(C(=O)CO)C[C@@H]3O[C@H]1C[C@H](N)[C@H](O)[C@H](C)O1` [DOX, doxorubicin, reference compound], the IC50 worked out at 0.49 ± 0.092 µM in series [1] (Mus musculus, S-180, S180, 48 h, Mean ± SD); 0.19 ± 0.095 µM in series [2] (Mus musculus, LLC, Mean ± SD); 0.229 ± 0.052 µM in series [3] (Homo sapiens, A549, 48 h, Mean ± SD); 0.375 ± 0.108 µM in [4] (Homo sapiens, HCT-116, HCT116, 48 h, Mean ± SD); 1.2 ± 0.034 µM in series [5] (Homo sapiens, U2Os, Mean ± SD); 1.03 ± 0.188 µM in series [6] (Homo sapiens, MCF7, MCF-7, 48 h, Mean ± SD). The compound further registered a Tumor Inhibition Rate with mouse S180 sarcoma model (setting [9]) of 51.80%. The compound also displayed an Average tumor weight in the series with mouse S180 sarcoma model (setting [9]) of 0.861 ± 0.462 g.

In the series on mouse S180 sarcoma model (setting [8]), `CN(C)c1ccc2cc(C(=O)NC(CCCNC(=N)CCl)C(=O)NCc3ccccc3)ccc2c1` (centres unmarked) [YW3-56, N-(1-(benzylamino)-5-(2-chlorooxalimide)-1-oxopentan-2-yl)-6-(dimethylamino)-2-naphthylamide, reference compound] gave a Tumor Inhibition Rate of 44.39% and an Average tumor weight of 0.994 ± 0.310 g. Besides, in the series with mouse S180 sarcoma model (Table 3, 10 μmol/kg, iv), the “Tumor Inhibition Rate” value came to 44.38% and the Average tumor weight is on record as 0.954 ± 0.298 g.

Regarding `N=C(NCCC[C@H](Nc1ccc([N+](=O)[O-])c2nonc12)C(=O)OCc1ccccc1)N[N+](=O)[O-]` [ZD-A, NBD-Arg(NO2)-OBzl], the IC50 was above 100 µM in series [1] (Mus musculus, S-180, 48 h); above 100 µM in series [2] (Mus musculus); above 100 µM in series [3] (Homo sapiens, A549, 48 h); above 100 µM in [4] (Homo sapiens, HCT-116, 48 h); above 100 µM in series [5] (Homo sapiens, U2OS); above 100 µM in [6] (Homo sapiens, MCF7, 48 h). The “Average tumor weight compared with Vehicle group (one-way analysis of variance)” value in the series with mouse S180 sarcoma model (10 μmol/kg, ip) was “different from that of Vehicle group”. In addition, the Tumor Inhibition Rate in the series with mouse S180 sarcoma model (setting [8]) worked out at 36.19%; in the series with mouse S180 sarcoma model (Table 3, 2 μmol/kg, ip) it was 23.36%; in the series on mouse S180 sarcoma model (Table 3, 5 μmol/kg, ip), 28.20%; with mouse S180 sarcoma model (Table 3, 10 μmol/kg, ip), 29.78%. The Average tumor weight was 1.140 ± 0.437 g in the series with mouse S180 sarcoma model (setting [8]); 1.315 ± 0.338 g with mouse S180 sarcoma model (Table 3, 2 μmol/kg, ip); 1.232 ± 0.102 g in the series with mouse S180 sarcoma model (Table 3, 5 μmol/kg, ip); 1.204 ± 0.438 g in the series on mouse S180 sarcoma model (Table 3, 10 μmol/kg, ip). The Water solubility result in the series “Water solubility” is listed as “poor water solubility”.

For the compound `O=C1NCCC[C@@H]1Nc1ccc([N+](=O)[O-])c2nonc12` [ZD-D, NBD-Orn(cycto)], the IC50 in [1] (S180, 48 h, Mean ± SD) is above 100 µM; in series [2] (LLC, Mean ± SD) it was above 100 µM; in series [3] (A549, 48 h, Mean ± SD) it was above 100 µM; in series [4] (HCT116, 48 h, Mean ± SD), above 100 µM; in series [5] (U2Os, Mean ± SD), above 100 µM; in series [6] (MCF-7, 48 h, Mean ± SD), above 100 µM. The compound also showed a Tumor Inhibition Rate with mouse S180 sarcoma model (setting [8]) of 25.77%. The same compound returned an Average tumor weight in the series on mouse S180 sarcoma model (setting [8]) of 1.326 ± 0.318 g.

On to `NCCC[C@H](Nc1ccc([N+](=O)[O-])c2nonc12)C(=O)NCc1ccccc1` [ZD-E, (S)-5-amino-N-benzyl-2-((7-nitro-2,1,3-benzoxadiazol-4-yl)amino)pentaneamide], for which the IC50 in series [1] (Mus musculus, S-180, 48 h) is 66 ± 2.61 µM; in series [2] (Mus musculus), above 100 µM; in series [3] (Homo sapiens, A549, 48 h), above 100 µM; in series [4] (Homo sapiens, HCT-116, 48 h) it was 49.7 ± 4.17 µM; in series [5] (Homo sapiens, U2OS) it was 60.5 ± 0.969 µM; in [6] (Homo sapiens, MCF7, 48 h), 85.2 ± 6.1 µM. The compound further returned a Tumor Inhibition Rate with mouse S180 sarcoma model (setting [8]) of 25.82%. The Average tumor weight in the series with mouse S180 sarcoma model (setting [8]) turned out to be 1.326 ± 0.685 g.
